Consider 26 molecules from US10034861B2 (priority 2016, dated 2018).

Common to all, as to type: biochemical
One experiment has as its target PDE1A (Homo sapiens (Human), UniProt P54750). The experiment is described as follows: biochemical. The source says:
(§1) Table 1 lists the IC50 value for inhibition of PDE1 by the compounds of the invention. […] PDE1 assays are described in the Experimental Section.

In a further experiment the target is PDE1C (Homo sapiens (Human), UniProt Q14123). The experiment is described as follows: biochemical.
From the text: as §1

Another experiment addresses PDE1B (Homo sapiens (Human), UniProt Q01064). The experiment in a line: PDE1 inhibition assay (PDE1B). The conditions noted are these: 15 nM tritium labelled cAMP, 1 hr at room temperature, SPA beads.
From the text: as §1

[1] abbreviates: 15 nM tritium labelled cAMP, 1 hr at room temperature, SPA beads.

In general, IC50 refers to the concentration needed to halve the response being measured.

Read-outs that look alike come from different tables or passages of the source.

Sequence of PDE1B (Q01064 whole entry): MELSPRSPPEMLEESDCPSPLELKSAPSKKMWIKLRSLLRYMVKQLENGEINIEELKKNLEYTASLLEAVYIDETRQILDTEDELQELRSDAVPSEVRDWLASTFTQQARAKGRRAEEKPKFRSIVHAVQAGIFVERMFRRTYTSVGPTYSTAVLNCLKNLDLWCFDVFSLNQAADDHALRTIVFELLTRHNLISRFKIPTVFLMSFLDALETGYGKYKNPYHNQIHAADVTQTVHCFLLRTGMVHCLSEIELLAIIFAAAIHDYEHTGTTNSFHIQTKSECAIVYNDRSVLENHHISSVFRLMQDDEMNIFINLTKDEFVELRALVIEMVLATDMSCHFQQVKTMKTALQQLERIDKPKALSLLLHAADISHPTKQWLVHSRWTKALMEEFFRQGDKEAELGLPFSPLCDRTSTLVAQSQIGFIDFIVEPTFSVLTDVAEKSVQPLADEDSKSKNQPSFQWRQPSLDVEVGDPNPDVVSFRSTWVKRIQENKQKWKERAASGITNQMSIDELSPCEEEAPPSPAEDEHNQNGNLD
Sequence of PDE1A (P54750 whole entry): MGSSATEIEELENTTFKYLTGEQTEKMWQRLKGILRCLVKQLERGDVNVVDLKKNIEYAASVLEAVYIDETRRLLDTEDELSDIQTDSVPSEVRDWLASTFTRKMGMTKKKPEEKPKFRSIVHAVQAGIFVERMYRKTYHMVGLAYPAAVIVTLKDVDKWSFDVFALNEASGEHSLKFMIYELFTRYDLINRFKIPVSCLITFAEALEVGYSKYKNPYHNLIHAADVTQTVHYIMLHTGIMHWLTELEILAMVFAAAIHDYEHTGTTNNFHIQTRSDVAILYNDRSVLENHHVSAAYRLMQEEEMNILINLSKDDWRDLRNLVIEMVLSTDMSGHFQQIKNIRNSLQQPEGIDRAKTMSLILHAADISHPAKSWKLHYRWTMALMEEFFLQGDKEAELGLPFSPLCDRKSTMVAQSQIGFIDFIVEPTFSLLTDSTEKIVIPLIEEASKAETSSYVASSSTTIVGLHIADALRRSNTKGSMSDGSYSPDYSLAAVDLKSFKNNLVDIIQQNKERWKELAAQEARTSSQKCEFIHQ
Sequence of PDE1C (Q14123 whole entry): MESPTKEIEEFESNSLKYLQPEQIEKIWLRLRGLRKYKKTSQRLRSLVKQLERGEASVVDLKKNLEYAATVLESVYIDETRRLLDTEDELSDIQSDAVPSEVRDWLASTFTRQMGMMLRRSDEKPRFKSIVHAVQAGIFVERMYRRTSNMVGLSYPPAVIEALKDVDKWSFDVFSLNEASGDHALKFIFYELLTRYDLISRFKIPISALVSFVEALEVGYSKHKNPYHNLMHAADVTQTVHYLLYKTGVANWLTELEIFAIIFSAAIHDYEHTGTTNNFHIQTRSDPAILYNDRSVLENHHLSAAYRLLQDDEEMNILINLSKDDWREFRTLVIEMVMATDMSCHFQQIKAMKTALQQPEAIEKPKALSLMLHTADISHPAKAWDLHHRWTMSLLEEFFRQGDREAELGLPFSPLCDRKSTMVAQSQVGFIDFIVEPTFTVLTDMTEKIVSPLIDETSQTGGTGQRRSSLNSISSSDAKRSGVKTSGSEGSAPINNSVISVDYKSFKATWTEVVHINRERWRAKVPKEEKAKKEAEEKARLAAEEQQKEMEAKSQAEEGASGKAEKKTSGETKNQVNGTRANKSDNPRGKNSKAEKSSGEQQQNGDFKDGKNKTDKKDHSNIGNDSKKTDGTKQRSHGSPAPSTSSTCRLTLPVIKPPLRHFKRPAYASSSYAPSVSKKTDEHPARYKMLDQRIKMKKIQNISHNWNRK

`CCOc1ncccc1-c1cc(NCc2ccn(C)n2)c2c(n1)c(C)nn2C(C)CC` (single isomer, unassigned) [Example 67, 5-(2-ethoxy-3-pyridyl)-3-methyl-1-[1-methylpropyl]-N-[(1-methylpyrazol-3-yl)methyl]pyrazolo[4,3-b]pyridin-7-amine]: the IC50 at PDE1A (setting [1]) stood at 9.6 nM; at PDE1C (setting [1]), 27 nM; at PDE1B (PDE1B, IC50 (nM)) it was 0.64 nM.
Consider `CCOc1ncccc1-c1cc(NCc2cc[nH]n2)c2c(n1)c(C)nn2C(C)CC` (single isomer, unassigned) [Example 119, 5-(2-ethoxy-3-pyridyl)-3-methyl-1-[1-methylpropyl]-N-(1H-pyrazol-3-ylmethyl)pyrazolo[4,3-b]pyridin-7-amine], for which the IC50 was 29 nM at PDE1C and 0.56 nM against PDE1B (PDE1B, IC50 (nM)).
Take `CCOc1ncccc1-c1cc(NCc2c[nH]cn2)c2c(n1)c(C)nn2C(C)CC` (single isomer, unassigned) [Example 130, 5-(2-ethoxy-3-pyridyl)-N-(1H-imidazol-4-ylmethyl)-3-methyl-1-[1-methylpropyl]pyrazolo[4,3-b]pyridin-7-amine]: the IC50 against PDE1A (setting [1]) stood at 11 nM; against PDE1C (setting [1]), 25 nM; on PDE1B (PDE1B, IC50 (nM)), 0.86 nM.
For `CCOc1ncccc1-c1cc(NCc2cnc(C)o2)c2c(n1)c(C)nn2C(C)CC` (single isomer, unassigned) [Example 133, 5-(2-ethoxy-3-pyridyl)-3-methyl-N-[(2-methyloxazol-5-yl)methyl]-1-[1-methylpropyl]pyrazolo[4,3-b]pyridin-7-amine], the midpoint of inhibition at PDE1B (PDE1B, IC50 (nM)), the IC50, lay at 1.3 nM.
Turning to `CCCOc1ncccc1-c1cc(NCc2ncn(C)n2)c2c(n1)c(C)nn2C(C)CC` (single isomer, unassigned) [Example 134, 3-methyl-1-[1-methylpropyl]-N-[(1-methyl-1,2,4-triazol-3-yl)methyl]-5-(2-propoxy-3-pyridyl)pyrazolo[4,3-b]pyridin-7-amine], the IC50 on PDE1A (setting [1]) stood at 0.96 nM; against PDE1C (setting [1]) it was 1.5 nM; against PDE1B (PDE1B, IC50 (nM)), 0.12 nM.
With `CCOc1ncccc1-c1cc(NCc2cc[nH]n2)c2c(cnn2C(C)CC)n1` (single isomer, unassigned) [Example 136, 5-(2-ethoxy-3-pyridyl)-1-[1-methylpropyl]-N-(1H-pyrazol-3-ylmethyl)pyrazolo[4,3-b]pyridin-7-amine], the IC50 on PDE1A (setting [1]) was 62 nM; at PDE1C, 100 nM; at PDE1B (PDE1B, IC50 (nM)), 3.2 nM.
`CCOc1ncccc1-c1cc(NCc2nnc(C)o2)c2c(cnn2C(C)CC)n1` (single isomer, unassigned) [Example 138, 5-(2-ethoxy-3-pyridyl)-N-[(5-methyl-1,3,4-oxadiazol-2-yl)methyl]-1-[1-methylpropyl]pyrazolo[4,3-b]pyridin-7-amine]: the IC50 at PDE1A (setting [1]) came out at 93 nM; against PDE1C, 180 nM; at PDE1B (PDE1B, IC50 (nM)) it was 6.8 nM.
For `CCOc1ncccc1-c1cc(NCc2ncn(C)n2)c2c(cnn2C(C)CC)n1` (single isomer, unassigned) [Example 140, 5-(2-ethoxy-3-pyridyl)-1-[1-methylpropyl]-N-[(1-methyl-1,2,4-triazol-3-yl)methyl]pyrazolo[4,3-b]pyridin-7-amine] the same measures were 32 nM, 52 nM and 1.7 nM.
For the molecule `CCOc1ncccc1-c1cc(NCc2ncn(C)n2)c2c(cnn2C(C)CC)n1` (single isomer, unassigned) [Example 141, 5-(2-ethoxy-3-pyridyl)-1-[1-methylpropyl]-N-[(1-methyl-1,2,4-triazol-3-yl)methyl]pyrazolo[4,3-b]pyridin-7-amine], the half-maximal inhibitory concentration (IC50) was 44 nM against PDE1A (setting [1]); 76 nM at PDE1C; 2.2 nM against PDE1B (PDE1B, IC50 (nM)).
For the molecule `CCOc1ncccc1-c1cc(NCc2nc[nH]n2)c2c(n1)c(C)nn2C(C)CC` (single isomer, unassigned) [Example 144, 5-(2-ethoxy-3-pyridyl)-3-methyl-1-[1-methylpropyl]-N-(1H-1,2,4-triazol-3-ylmethyl)pyrazolo[4,3-b]pyridin-7-amine], the half-inhibitory concentration (IC50) against PDE1A (setting [1]) worked out at 14 nM; against PDE1C (setting [1]), 23 nM; on PDE1B (PDE1B, IC50 (nM)), 1.1 nM.
As for `CCOc1ncccc1-c1cc(NCc2cncc(OC)c2)c2c(n1)c(C)nn2C(C)CC` (single isomer, unassigned; enantiomer 2) [Example 125, 5-(2-ethoxy-3-pyridyl)-N-[(5-methoxy-3-pyridyl)methyl]-3-methyl-1-[1-methylpropyl]pyrazolo[4,3-b]pyridin-7-amine, enantiomer 2], on PDE1B (PDE1B, IC50 (nM)), the midpoint of inhibition, the IC50, lay at 0.32 nM.
`CCOc1ncccc1-c1cc(NCc2nnc(C)o2)c2c(n1)c(C)nn2C(C)C` [Example 1, 5-(2-ethoxypyridin-3-yl)-1-isopropyl-3-methyl-N-((5-methyl-1,3,4-oxadiazol-2-yl)methyl)-1H-pyrazolo[4,3-b]pyridin-7-amine]: the IC50 turned out to be 18 nM on PDE1A (setting [1]); 40 nM against PDE1C (setting [1]); 1.6 nM at PDE1B (read-out: PDE1B, IC50).
As to `CCOc1ncccc1-c1cc(NCc2ncc(C)s2)c2c(n1)c(C)nn2C(C)C` [Example 2, 5-(2-ethoxy-3-pyridyl)-1-isopropyl-3-methyl-N-[(5-methylthiazol-2-yl)methyl]pyrazolo[4,3-b]pyridin-7-amine], the half-maximal inhibitory concentration (IC50) at PDE1A (setting [1]) worked out at 0.46 nM; at PDE1C (setting [1]) it was 4.9 nM; on PDE1B (read-out: PDE1B, IC50) it was 0.071 nM.
For `CCOc1ncccc1-c1cc(NCc2cc(C)on2)c2c(n1)c(C)nn2C(C)C` [Example 3, 5-(2-ethoxy-3-pyridyl)-1-isopropyl-3-methyl-N-[(5-methylisoxazol-3-yl)methyl]pyrazolo[4,3-b]pyridin-7-amine], the IC50 at PDE1A (setting [1]) is 0.8 nM; at PDE1C (setting [1]) it was 3 nM; on PDE1B (read-out: PDE1B, IC50), 0.11 nM.
Turning to `CCOc1ncccc1-c1cc(NCc2cnn(C)n2)c2c(n1)c(C)nn2C(C)C` [Example 5, 5-(2-ethoxy-3-pyridyl)-1-isopropyl-3-methyl-N-[(2-methyltriazol-4-yl)methyl]pyrazolo[4,3-b]pyridin-7-amine], the IC50 is 11 nM against PDE1A (setting [1]); 28 nM against PDE1C (setting [1]); 1.8 nM on PDE1B (read-out: PDE1B, IC50).
Regarding `CCOc1ncccc1-c1cc(NCc2cn(C)nn2)c2c(n1)c(C)nn2C(C)C` [Example 6, 5-(2-ethoxy-3-pyridyl)-1-isopropyl-3-methyl-N-[(1-methyltriazol-4-yl)methyl]pyrazolo[4,3-b]pyridin-7-amine], the IC50 was 4.8 nM against PDE1A (setting [1]); 5.6 nM on PDE1C (setting [1]); 0.22 nM on PDE1B (read-out: PDE1B, IC50).
On to `CCOc1ncccc1-c1cc(NCc2cn[nH]c2)c2c(n1)c(C)nn2C(C)C` [Example 7, 5-(2-ethoxy-3-pyridyl)-1-isopropyl-3-methyl-N-(1H-pyrazol-4-ylmethyl)pyrazolo[4,3-b]pyridin-7-amine], for which the IC50 on PDE1A (setting [1]) is 21 nM; against PDE1C (setting [1]), 37 nM; on PDE1B (read-out: PDE1B, IC50) it was 1.1 nM.
As to `CCOc1ncccc1-c1cc(NCc2nc(C)cs2)c2c(n1)c(C)nn2C(C)C` [Example 29, 5-(2-ethoxypyridin-3-yl)-1-isopropyl-3-methyl-N-((4-methylthiazol-2-yl)methyl)-1H-pyrazolo[4,3-b]pyridin-7-amine], the IC50 at PDE1B (read-out: PDE1B, IC50) was determined as 1.1 nM.
As to `CCOc1ncccc1-c1cc(NCc2ccc(=O)n(C)c2)c2c(n1)c(C)nn2C(C)C` [Example 45], the IC50 on PDE1B (read-out: PDE1B, IC50) was found to be 0.62 nM.
As for `Cc1nn(C(C)C)c2c(NCc3cnn(C)c3)cc(-c3cccn(C)c3=O)nc12` [Example 49, 3-(1-isopropyl-3-methyl-7-(((1-methyl-1H-pyrazol-4-yl)methyl)amino)-1H-pyrazolo[4,3-b]pyridin-5-yl)-1-methylpyridin-2(1H)-one], the IC50 against PDE1C (setting [1]) was 420 nM; at PDE1B (read-out: PDE1B, IC50), 20 nM.
On to `CCOc1ncccc1-c1cc(NCc2nc(C)co2)c2c(n1)c(C)nn2C(C)C` [Example 50, 5-(2-ethoxypyridin-3-yl)-1-isopropyl-3-methyl-N-((4-methyloxazol-2-yl)methyl)-1H-pyrazolo[4,3-b]pyridin-7-amine 2,2,2-trifluoroacetate], for which the concentration for half-maximal inhibition (IC50) on PDE1A (setting [1]) was 9 nM; on PDE1B (read-out: PDE1B, IC50) it was 0.5 nM.
With `Cc1sccc1-c1cc(NCc2cnn(C)c2)c2c(n1)c(C)nn2C(C)C` [Example 65, 1-isopropyl-3-methyl-N-[(1-methylpyrazol-4-yl)methyl]-5-(2-methyl-3-thienyl)pyrazolo[4,3-b]pyridin-7-amine], the half-maximal inhibitory concentration (IC50) against PDE1A (setting [1]) was 7.9 nM; at PDE1B (read-out: PDE1B, IC50), 1.2 nM.
With `CCOc1ncccc1-c1cc(NCc2nc[nH]n2)c2c(n1)c(C)nn2C(C)C` [Example 98, 5-(2-ethoxy-3-pyridyl)-1-isopropyl-3-methyl-N-(1H-1,2,4-triazol-3-ylmethyl)pyrazolo[4,3-b]pyridin-7-amine], the IC50 against PDE1C (setting [1]) came out at 21 nM; on PDE1B (read-out: PDE1B, IC50), 0.58 nM.
As to `CCOc1ncccc1-c1cc(NCc2cnn(C(F)F)c2)c2c(n1)c(C)nn2C(C)C` [Example 165, N-[[1-(difluoromethyl)pyrazol-4-yl]methyl]-5-(2-ethoxy-3-pyridyl)-1-isopropyl-3-methyl-pyrazolo[4,3-b]pyridin-7-amine], the IC50 against PDE1A was 73 nM; against PDE1B (PDE1B, IC50 (nM)), 5.9 nM.
`CCOc1ncccc1-c1cc(NCc2cc(CF)on2)c2c(n1)c(C)nn2C(C)C` [Example 166, 5-(2-ethoxy-3-pyridyl)-N-[[5-(fluoromethyl)isoxazol-3-yl]methyl]-1-isopropyl-3-methyl-pyrazolo[4,3-b]pyridin-7-amine]: at PDE1B (read-out: PDE1B, IC50), the 50% inhibitory concentration (IC50) came to 0.16 nM.
Consider `Cc1nn(C(C)C)c2c(NCc3cnn(C)c3)cc(-c3cccnc3N(C)C)nc12` [Example 201, 5-[2-(dimethylamino)-3-pyridyl]-1-isopropyl-3-methyl-N-[(1-methylpyrazol-4-yl)methyl]pyrazolo[4,3-b]pyridin-7-amine], for which the IC50 at PDE1B (read-out: PDE1B, IC50) was found to be 230 nM.
